Results taken from patent US20230172973A1, “METHODS AND COMPOSITIONS FOR TREATING AND COMBATTING TUBERCULOSIS” (THIRTY RESPIRATORY LIMITED, priority 2020, published 2023).

What was measured:
[1] = tested on: SARS-CoV-2 clinical isolate; test: SARS-CoV-2 inhibition (virus yield reduction, TCID50 titration); assay type: cell-based
Experimental: At time 0 hr, Vero E6 cells were infected with virus in presence of the formulation or controls and incubated for 1 hour. After this incubation period the inoculum was removed and the cells were washed. Fresh formulation or controls were then added to the washed cells. At 24 hours post infection, Vero E6 cell supernatants were harvested and titrated, and the virus titration was incubated for 6 days prior to readout to determine any virus yield reduction. Separate tests were performed at four MOIs including 3.0 and 0.3, although only those two MOIs were titrated. The readout was by crystal violet (cell monolayer) staining, followed by CPE scoring.

Vero E6 cells = conditions: 2 hr and 24 hr

## O=C(O)CC(O)(CC(=O)O)C(=O)O [citric acid pH 5.8, citric acid]
[1]; Vero E6 cells, MOI 3.0 and 0.3
  In vitro antiviral action against SARS-CoV-2 (FIGS. 33 and 34): high in vitro antiviral action
Vero E6 cells
  Cytotoxicity on the LDH assay (FIG. 32): low cytotoxicity

## CCN(CC)CCCC(C)Nc1ccnc2cc(Cl)ccc12 (stereo not shown) [chloroquine, Chloroquine phosphate]
[1]; MOI 3.0, 24 hours incubation
  SARS-CoV-2 titre (FIG. 33, Run 1): limit of detection
[1]; MOI 3.0 and MOI 0.3, 48 hours incubation
  SARS-CoV-2 titre (FIG. 34, Run 2): limit of detection
